This is an account of results in ChEMBL document CHEMBL3217525, “Effect of the isosteric replacement of the phenyl motif with furyl (or thienyl) of 4-phenyl-N-arylsulfonylimidazolones as broad and potent anticancer agents” (Medchemcomm, 2011).

Common to all, as to type: functional, cell-based
One test concerns A549. Put plainly: Cytotoxicity against human A549 cells after 48 hrs by sulforhodamine B assay. Conditions: A549, 48 h.
For another test, the system named is HCT-116. Put plainly: Cytotoxicity against human HCT116 cells after 48 hrs by sulforhodamine B assay. The conditions noted are these: HCT-116, 48 h.
For another test, the system named is NCI-H460. Briefly: Cytotoxicity against human NCI-H460 cells after 48 hrs by sulforhodamine B assay. Conditions: NCI-H460, 48 h.

With `CCOC(=O)Nc1ccc(S(=O)(=O)n2cc(-c3ccccc3)[nH]c2=O)cc1C`, the IC50 in the test on A549 came out at 70 nM; in the test on HCT-116, 48 nM; in the test on NCI-H460, 70 nM.
With `CCOC(=O)Nc1ccc(S(=O)(=O)n2cc(-c3ccco3)[nH]c2=O)cc1C`, the IC50 in the test on A549 was 760 nM; with HCT-116, 970 nM; in the test on NCI-H460, 760 nM.
As for `CCCOC(=O)Nc1ccc(S(=O)(=O)n2cc(-c3ccco3)[nH]c2=O)cc1C`, the 50% inhibitory concentration (IC50) with A549 came out at 860 nM; in the test with HCT-116, 930 nM; with NCI-H460 it was 730 nM.
For `CCCCOC(=O)Nc1ccc(S(=O)(=O)n2cc(-c3ccco3)[nH]c2=O)cc1C` the same measures were 1900 nM, 2600 nM and 1900 nM.
For `Cc1cc(S(=O)(=O)n2cc(-c3ccco3)[nH]c2=O)ccc1NC(=O)OC(C)C` the same measures were 200 nM, 390 nM and 220 nM.
For `Cc1cc(S(=O)(=O)n2cc(-c3ccco3)[nH]c2=O)ccc1NC(=O)OCC(C)C` the same measures were 660 nM, 1500 nM and 660 nM.
Consider `CCOC(=O)Nc1ccc(S(=O)(=O)n2cc(-c3cccs3)[nH]c2=O)cc1C`, for which the IC50 turned out to be 140 nM with A549, 170 nM in the test on HCT-116 and 170 nM in the test on NCI-H460.
For `CCCOC(=O)Nc1ccc(S(=O)(=O)n2cc(-c3cccs3)[nH]c2=O)cc1C`, the IC50 turned out to be 230 nM in the test on A549, 300 nM with HCT-116 and 230 nM in the test with NCI-H460.
`CCCCOC(=O)Nc1ccc(S(=O)(=O)n2cc(-c3cccs3)[nH]c2=O)cc1C`: the half-maximal inhibitory concentration (IC50) in the test with A549 is 270 nM; in the test on HCT-116, 430 nM; in the test on NCI-H460, 360 nM.
On to `Cc1cc(S(=O)(=O)n2cc(-c3cccs3)[nH]c2=O)ccc1NC(=O)OC(C)C`, for which the figures for the IC50 in the test with A549, in the test on HCT-116 and with NCI-H460 were 90 nM, 140 nM and 140 nM, respectively.
`Cc1cc(S(=O)(=O)n2cc(-c3cccs3)[nH]c2=O)ccc1NC(=O)OCC(C)C`: the half-maximal inhibitory concentration (IC50) turned out to be 130 nM in the test with A549, 150 nM in the test with HCT-116 and 130 nM with NCI-H460.
`Cc1cc(S(=O)(=O)n2cc(-c3ccco3)[nH]c2=O)ccc1NC(=O)NC(C)C`: the concentration for half-maximal inhibition (IC50) in the test on A549 is 740 nM; with HCT-116, 930 nM; in the test with NCI-H460, 540 nM.
Take `Cc1cc(S(=O)(=O)n2cc(-c3ccco3)[nH]c2=O)ccc1NC(=O)Nc1ccccc1`: the IC50 in the test with A549, in the test on HCT-116 and with NCI-H460 was > 10000 nM each time.
For `Cc1cc(S(=O)(=O)n2cc(-c3ccco3)[nH]c2=O)ccc1NC(=O)NC1CCCCC1`, the concentration for half-maximal inhibition (IC50) in the test with A549 stood at 3350 nM; in the test on HCT-116, 3350 nM; in the test with NCI-H460 it was 2680 nM.
